Earlier results, collected in patent publication US20070042062A1, “Novel anti-diabetic herbal formulation” (COUNCIL OF SCIENTIFIC AND INDUSTRIAL RESEARCH., priority 2004, published 2007).

Experiments:
[1] = tested on: carrageenin-induced acute oedema; settings: mice
[2] = tested on: patients suffering from chronic antieri or ureitis (CAU); settings: 375 mg three times a day for 12 weeks, oral; curcumin alone
male volunteers = tested on: male volunteers; parameters: dose or concentration left out as unconfirmed; settings: for 4 weeks
monkey = settings: in vivo

Structure (SMILES): COc1cc(/C=C/C(=O)CC(=O)/C=C/c2ccc(O)c(OC)c2)ccc1O [Curcumin, curcumin]
- oral ED50 against carrageenin-induced acute oedema [1]: 100.2 mg/kg
- clinical outcome in CAU patients [2]: all the patients who received curcumin alone improved
- side effect in phase-I trials (male volunteers): did not produce any side effect
- toxicity on single or repeated oral administration (monkey): did not produce any toxicity
